Values quoted from earlier work as cited in US20070110909A1, “Reduction or elimination of microbial growth and biofouling of salted wet biomass byproducts” (priority 2005, published 2007).

What was measured:
[1] = system: rats, mice and hamsters; details: fore-stomachs of rats
[2] = system: animal tests; details: birth defects in rats

SMILES | tumors in animals [1] | toxic effects in animal tests [2]
COc1ccc(O)c(C(C)(C)C)c1 [BHA, Butylated hydroxyanisole] | caused cancerous tumors | –
Cc1cc(C(C)(C)C)c(O)c(C(C)(C)C)c1 [BHT, Butylated hydroxytoluene] | – | caused liver cancer and lung tumors, increased blood cholesterol, reduced growth rates and body weight
